Assay results published in patent publication US11447502B2, “Antibacterial agents: dual-targeted RNA polymerase inhibitors” (priority 2018, dated 2022).
Converted amounts (≈) assume the structure as drawn.

Assays:
Test in all cases: microbe, parasite or virus in culture
Assay type in all cases: cell-based
[1] = test system: rifampin-resistant M. tuberculosis 20626 (rpoB-H′526′D); details: Mycobacterium tuberculosis; read-out: antibacterial activity rifampin-resistant M. tuberculosis 20626 (rpoB-H′526′D) MIC
[2] = test system: rifampin-resistant M. tuberculosis 4457 (rpoB-H′526′Y); details: Mycobacterium tuberculosis; read-out: antibacterial activity rifampin-resistant M. tuberculosis 4457 (rpoB-H′526′Y) MIC
[3] = test system: rifampin-resistant M. tuberculosis 10545 (rpoB-S′531′L); details: Mycobacterium tuberculosis; read-out: antibacterial activity rifampin-resistant M. tuberculosis 10545 (rpoB-S′531′L) MIC

## CO[C@H]1/C=C/O[C@@]2(C)Oc3c(C)c(O)c4c(O)c(c(/C=N/N5CCN(CCN6CCN(c7ccc(F)cc7NC(=O)C(Cc7ccccc7)NC(=O)c7ccccc7F)CC6)CC5)c(O)c4c3C2=O)NC(=O)/C(C)=C\C=C\[C@H](C)[C@H](O)[C@@H](C)[C@@H](O)[C@@H](C)[C@H](OC(C)=O)[C@@H]1C (some centres unmarked) [IX-403, Rifamycin SV—(CHN)—IX-402 Conjugate]
[1]
  MIC: 25 µg/mL (≈ 19.2 µM)
[2]
  MIC: 12.5 µg/mL (≈ 9.62 µM)
[3]
  MIC: 12.5 µg/mL (≈ 9.62 µM)

## [2H]C([2H])(c1ccccc1)C(NC(=O)c1ccccc1F)C(=O)Nc1cc(F)ccc1N1CCN(/N=C/C2=C3NC(=O)/C(C)=C\C=C\[C@H](C)[C@H](O)[C@@H](C)[C@@H](O)[C@@H](C)[C@H](OC(C)=O)[C@H](C)[C@@H](OC)/C=C/O[C@@]4(C)Oc5c(C)c(O)c(c(c5C4=O)C2=O)C3=O)CC1 (some centres unmarked) [IX-476a, Rifamycin S—(CHN)—IX-370a Conjugate]
[2]
  MIC: 3.13 µg/mL (≈ 2.64 µM)
[3]
  MIC: 6.25 µg/mL (≈ 5.26 µM)
